Results: ChEMBL document CHEMBL1201862, “PubChem BioAssay data set” (2004)
Activity calls are given as the source filed them.

Legend:
Type in all cases: functional
[1] = Luminescence Cell-Based Dose Response HTS to Identify Activators of Luciferase Translation or Activity in H4 […] Cells. [Related pubchem assays: 1829 (Project Summary), 1814 (Primary HTS)]
[2] = target: T1, Sentrin-specific protease 7 (Homo sapiens, UniProt Q9BQF6);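 further: Luminescence-based dose-response confirmation of ultra-high-throughput screening hits, measuring inhibition of SENP7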
T1 sequence (Q9BQF6 whole entry): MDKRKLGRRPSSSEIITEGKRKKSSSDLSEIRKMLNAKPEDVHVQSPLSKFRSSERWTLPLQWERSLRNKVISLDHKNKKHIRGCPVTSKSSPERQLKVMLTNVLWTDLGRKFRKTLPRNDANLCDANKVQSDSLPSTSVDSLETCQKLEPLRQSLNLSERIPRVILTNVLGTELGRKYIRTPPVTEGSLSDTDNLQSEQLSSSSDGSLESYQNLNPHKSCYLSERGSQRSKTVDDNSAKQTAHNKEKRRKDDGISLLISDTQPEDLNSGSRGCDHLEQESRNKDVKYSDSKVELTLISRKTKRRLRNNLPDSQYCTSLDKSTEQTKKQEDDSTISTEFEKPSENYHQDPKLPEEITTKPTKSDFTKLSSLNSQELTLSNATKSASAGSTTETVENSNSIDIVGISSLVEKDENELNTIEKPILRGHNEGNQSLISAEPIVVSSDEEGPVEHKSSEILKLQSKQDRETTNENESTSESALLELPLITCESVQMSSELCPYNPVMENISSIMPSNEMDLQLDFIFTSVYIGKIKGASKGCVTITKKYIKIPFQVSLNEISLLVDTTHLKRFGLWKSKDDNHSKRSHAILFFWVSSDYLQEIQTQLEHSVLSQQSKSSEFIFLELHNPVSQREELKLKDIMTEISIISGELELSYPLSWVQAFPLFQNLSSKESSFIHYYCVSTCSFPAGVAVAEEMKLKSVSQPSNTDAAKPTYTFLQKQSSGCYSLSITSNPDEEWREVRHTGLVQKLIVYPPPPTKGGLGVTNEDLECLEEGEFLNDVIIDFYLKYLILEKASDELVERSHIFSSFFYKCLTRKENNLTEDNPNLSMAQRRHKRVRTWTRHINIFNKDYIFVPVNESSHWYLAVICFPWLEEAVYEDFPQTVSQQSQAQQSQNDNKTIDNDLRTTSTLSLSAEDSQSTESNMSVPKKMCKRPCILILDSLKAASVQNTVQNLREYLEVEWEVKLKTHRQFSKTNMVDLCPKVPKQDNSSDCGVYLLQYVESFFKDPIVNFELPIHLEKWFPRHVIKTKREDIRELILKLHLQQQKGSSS

LIM domain kinase 1 = LIM domain kinase 1 (Homo sapiens, UniProt P53667); experiment: Navigating the Kinome. Panel member name: LIMK1
[3] = target: Cyclin-dependent kinase 5 (Homo sapiens, UniProt Q00535);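 further: CDK5 measured as one member of a kinase profiling panel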
Chain of Cyclin-dependent kinase 5 (Q00535 whole entry): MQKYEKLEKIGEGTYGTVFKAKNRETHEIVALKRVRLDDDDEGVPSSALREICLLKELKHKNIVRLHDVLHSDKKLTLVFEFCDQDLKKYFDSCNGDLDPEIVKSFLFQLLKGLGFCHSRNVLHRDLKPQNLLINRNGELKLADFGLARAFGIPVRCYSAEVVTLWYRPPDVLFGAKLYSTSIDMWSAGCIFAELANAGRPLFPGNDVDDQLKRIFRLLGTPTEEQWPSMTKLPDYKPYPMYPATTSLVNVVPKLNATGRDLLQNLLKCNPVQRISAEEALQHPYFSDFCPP

[4] = target: MAP kinase-activated protein kinase 5 (Homo sapiens, UniProt Q8IW41);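 further: measured as one member of a kinome panel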
[5] = target: Mast/stem cell growth factor receptor Kit (Homo sapiens, UniProt P10721);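 further: KIT entry within a kinase panel assay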
Chain of Mast/stem cell growth factor receptor Kit (P10721 whole entry): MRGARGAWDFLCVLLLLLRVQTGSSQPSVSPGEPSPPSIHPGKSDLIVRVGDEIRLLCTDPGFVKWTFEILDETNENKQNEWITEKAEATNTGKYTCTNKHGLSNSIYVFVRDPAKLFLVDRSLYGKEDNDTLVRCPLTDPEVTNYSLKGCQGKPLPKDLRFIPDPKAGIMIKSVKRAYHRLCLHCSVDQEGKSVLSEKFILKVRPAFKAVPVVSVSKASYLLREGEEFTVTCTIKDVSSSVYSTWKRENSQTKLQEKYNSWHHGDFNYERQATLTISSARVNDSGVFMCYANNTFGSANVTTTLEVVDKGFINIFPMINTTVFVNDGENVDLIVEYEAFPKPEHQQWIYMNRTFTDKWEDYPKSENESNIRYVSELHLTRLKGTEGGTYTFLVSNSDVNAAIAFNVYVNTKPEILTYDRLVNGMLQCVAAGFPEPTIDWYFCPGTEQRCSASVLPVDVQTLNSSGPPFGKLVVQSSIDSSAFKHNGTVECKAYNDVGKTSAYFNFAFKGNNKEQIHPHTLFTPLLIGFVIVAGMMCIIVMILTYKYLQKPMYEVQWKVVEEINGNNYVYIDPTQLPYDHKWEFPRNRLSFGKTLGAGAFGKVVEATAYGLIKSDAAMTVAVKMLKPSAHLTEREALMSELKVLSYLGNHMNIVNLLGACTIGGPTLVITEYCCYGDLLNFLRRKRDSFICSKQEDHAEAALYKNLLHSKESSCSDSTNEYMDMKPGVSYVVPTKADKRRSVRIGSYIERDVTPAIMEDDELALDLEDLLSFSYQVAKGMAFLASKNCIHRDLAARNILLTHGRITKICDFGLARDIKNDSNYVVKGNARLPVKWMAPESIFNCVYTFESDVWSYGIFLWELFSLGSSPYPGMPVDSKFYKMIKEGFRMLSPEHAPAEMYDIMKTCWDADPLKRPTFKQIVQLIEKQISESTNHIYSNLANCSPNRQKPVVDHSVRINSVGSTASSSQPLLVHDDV

[6] = target: Testis-specific serine/threonine-protein kinase 1 (Homo sapiens, UniProt Q9BXA7)
[7] = target: MAP/microtubule affinity-regulating kinase 3 (Homo sapiens, UniProt P27448);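 further: MARK3 affinity measured as one member of a kinome panel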
Insulin receptor = Insulin receptor (Homo sapiens, UniProt P06213);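 further: insulin receptor kinase tested as one member of a kinome-wide kinase panel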
[8] = target: Proto-oncogene tyrosine-protein kinase Src (Homo sapiens, UniProt P12931);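 further: SRC entry within a kinome-wide kinase profiling panel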
[9] = target: Tyrosine-protein kinase ABL1 (Homo sapiens, UniProt P00519)
[10] = target: Serine/threonine-protein kinase Nek4 (Homo sapiens, UniProt P51957)
Chain of Serine/threonine-protein kinase Nek4 (P51957 whole entry): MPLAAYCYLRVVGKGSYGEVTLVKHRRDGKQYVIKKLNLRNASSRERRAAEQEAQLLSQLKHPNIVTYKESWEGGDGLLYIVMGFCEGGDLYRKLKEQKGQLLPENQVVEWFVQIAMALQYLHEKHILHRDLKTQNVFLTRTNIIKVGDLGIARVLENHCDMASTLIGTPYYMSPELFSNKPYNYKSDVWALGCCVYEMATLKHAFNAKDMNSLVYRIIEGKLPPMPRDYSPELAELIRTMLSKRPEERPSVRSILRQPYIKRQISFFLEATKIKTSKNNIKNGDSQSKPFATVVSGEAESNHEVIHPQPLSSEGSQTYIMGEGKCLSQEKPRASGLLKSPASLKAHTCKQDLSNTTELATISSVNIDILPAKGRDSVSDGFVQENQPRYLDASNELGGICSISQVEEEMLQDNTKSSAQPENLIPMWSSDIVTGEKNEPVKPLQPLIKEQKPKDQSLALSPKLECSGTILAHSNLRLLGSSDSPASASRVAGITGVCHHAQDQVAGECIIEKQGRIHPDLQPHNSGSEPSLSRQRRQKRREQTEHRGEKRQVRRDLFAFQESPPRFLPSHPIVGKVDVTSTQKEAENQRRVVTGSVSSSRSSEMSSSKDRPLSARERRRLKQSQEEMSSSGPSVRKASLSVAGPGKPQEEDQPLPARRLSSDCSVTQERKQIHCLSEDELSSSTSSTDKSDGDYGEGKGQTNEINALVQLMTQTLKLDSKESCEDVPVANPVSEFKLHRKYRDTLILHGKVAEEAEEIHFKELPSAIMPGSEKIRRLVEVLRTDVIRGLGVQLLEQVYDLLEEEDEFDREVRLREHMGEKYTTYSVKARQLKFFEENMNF

[11] = target: Protein-tyrosine kinase 6 (Homo sapiens, UniProt Q13882)
Chain of Protein-tyrosine kinase 6 (Q13882 whole entry): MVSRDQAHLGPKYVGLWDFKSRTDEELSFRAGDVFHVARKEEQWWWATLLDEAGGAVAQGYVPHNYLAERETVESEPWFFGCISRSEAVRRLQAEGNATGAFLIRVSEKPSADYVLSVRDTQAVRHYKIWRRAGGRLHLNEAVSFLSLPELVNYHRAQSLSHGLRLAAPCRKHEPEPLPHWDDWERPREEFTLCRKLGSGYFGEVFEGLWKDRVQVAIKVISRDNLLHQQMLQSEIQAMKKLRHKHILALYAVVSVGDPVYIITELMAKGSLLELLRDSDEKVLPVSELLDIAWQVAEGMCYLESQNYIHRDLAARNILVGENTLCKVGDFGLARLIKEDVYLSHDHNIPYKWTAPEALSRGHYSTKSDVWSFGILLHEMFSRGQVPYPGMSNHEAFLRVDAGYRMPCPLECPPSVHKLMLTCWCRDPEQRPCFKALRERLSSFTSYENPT

[12] = target: Tyrosine-protein kinase Fer (Homo sapiens, UniProt P16591);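 further: FER tested as one member of a kinome panel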
[13] = target: Serine/threonine-protein kinase pim-2 (Homo sapiens, UniProt Q9P1W9);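 further: value comes from a broad kinase panel profiling study in which PIM2 was one of the panel members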
[14] = target: BDNF/NT-3 growth factors receptor (Homo sapiens, UniProt Q16620);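 further: NTRK2 measured as one member of a broad kinome-wide kinase profiling panel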
[15] = target: Tyrosine-protein kinase FRK (Homo sapiens, UniProt P42685);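 further: FRK tested as one member of a kinome panel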
Chain of Tyrosine-protein kinase FRK (P42685 whole entry): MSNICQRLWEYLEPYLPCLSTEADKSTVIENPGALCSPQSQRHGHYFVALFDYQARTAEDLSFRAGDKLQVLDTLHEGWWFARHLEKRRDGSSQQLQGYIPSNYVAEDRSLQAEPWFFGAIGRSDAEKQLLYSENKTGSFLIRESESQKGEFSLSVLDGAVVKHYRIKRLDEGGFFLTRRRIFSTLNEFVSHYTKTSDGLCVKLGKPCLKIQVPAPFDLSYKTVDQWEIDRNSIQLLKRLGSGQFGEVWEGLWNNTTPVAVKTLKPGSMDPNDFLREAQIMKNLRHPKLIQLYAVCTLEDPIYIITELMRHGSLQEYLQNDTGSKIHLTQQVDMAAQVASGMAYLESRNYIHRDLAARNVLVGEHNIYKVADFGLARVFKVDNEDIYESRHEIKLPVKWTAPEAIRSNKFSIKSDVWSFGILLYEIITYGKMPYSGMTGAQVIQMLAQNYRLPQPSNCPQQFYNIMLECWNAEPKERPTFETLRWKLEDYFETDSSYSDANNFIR

[16] = target: Serine/threonine-protein kinase 3 (Homo sapiens, UniProt Q13188);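 further: measured as one member of a kinome-wide kinase panel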
Chain of Serine/threonine-protein kinase 3 (Q13188 whole entry): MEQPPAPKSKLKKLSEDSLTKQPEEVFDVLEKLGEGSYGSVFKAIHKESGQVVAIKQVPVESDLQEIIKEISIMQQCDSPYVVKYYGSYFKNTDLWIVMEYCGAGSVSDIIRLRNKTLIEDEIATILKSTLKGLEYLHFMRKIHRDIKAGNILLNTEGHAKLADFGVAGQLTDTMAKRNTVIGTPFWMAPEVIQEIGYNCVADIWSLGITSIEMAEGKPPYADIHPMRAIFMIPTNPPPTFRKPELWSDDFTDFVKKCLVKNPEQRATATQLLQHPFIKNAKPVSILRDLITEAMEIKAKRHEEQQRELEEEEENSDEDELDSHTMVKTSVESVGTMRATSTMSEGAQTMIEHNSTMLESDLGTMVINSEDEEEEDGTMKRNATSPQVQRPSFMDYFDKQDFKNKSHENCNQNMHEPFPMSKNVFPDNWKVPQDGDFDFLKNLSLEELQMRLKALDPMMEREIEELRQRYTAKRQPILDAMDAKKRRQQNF

[17] = target: Calcium/calmodulin-dependent protein kinase type II subunit beta (Homo sapiens, UniProt Q13554)
Chain of Calcium/calmodulin-dependent protein kinase type II subunit beta (Q13554 whole entry): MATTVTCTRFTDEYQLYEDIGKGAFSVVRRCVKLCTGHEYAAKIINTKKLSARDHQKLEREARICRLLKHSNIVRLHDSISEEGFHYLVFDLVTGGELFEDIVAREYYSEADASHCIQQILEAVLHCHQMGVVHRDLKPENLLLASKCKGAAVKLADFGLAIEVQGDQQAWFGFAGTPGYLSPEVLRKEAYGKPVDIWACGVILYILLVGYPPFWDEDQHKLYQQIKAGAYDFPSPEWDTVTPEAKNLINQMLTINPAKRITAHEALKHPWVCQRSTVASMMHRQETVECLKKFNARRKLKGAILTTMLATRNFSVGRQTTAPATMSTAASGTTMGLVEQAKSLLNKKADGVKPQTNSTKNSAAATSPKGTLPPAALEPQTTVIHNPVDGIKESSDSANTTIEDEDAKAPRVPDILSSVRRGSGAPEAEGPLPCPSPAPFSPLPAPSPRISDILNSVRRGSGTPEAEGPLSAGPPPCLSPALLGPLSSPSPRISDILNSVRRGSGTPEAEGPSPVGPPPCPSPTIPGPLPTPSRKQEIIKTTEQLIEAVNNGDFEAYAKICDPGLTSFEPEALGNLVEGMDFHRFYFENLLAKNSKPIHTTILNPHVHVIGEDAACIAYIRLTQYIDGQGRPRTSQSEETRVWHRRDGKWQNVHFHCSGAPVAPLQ

[18] = target: G protein-coupled receptor kinase 5 (Homo sapiens, UniProt P34947); experiment: Navigating the Kinome. Panel member name: GPRK5
Chain of G protein-coupled receptor kinase 5 (P34947 whole entry): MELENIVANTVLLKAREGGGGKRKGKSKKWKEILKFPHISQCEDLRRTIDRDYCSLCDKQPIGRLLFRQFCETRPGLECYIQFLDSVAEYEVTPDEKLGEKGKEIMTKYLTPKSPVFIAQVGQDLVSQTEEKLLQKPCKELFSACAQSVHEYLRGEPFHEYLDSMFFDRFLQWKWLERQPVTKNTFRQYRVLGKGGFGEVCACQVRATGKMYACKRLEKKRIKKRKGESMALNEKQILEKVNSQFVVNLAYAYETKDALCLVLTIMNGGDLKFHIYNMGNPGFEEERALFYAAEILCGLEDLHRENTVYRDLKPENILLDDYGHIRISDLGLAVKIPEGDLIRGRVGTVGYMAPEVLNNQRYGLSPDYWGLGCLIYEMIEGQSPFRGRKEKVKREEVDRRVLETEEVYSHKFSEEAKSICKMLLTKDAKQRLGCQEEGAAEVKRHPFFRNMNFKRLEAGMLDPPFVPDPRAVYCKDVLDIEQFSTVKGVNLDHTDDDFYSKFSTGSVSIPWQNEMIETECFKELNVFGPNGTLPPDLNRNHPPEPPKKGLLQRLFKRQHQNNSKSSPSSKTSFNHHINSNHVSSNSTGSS

[19] = target: Vascular endothelial growth factor receptor 3 (Homo sapiens, UniProt P35916);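 further: value from a kinome-wide profiling panel, with FLT4 as the panel member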

In the case of O=C1C2=[N+]([O-])[C@H]3CCCC[C@H]3[N+]([O-])=C2c2ccccc21, the EC50 [1] is reported as 14900 nM (active) and the IC50 [2] is reported as 16800 nM (active).

For CC(C)(O)c1cn(-c2ccc3[nH]ncc3c2)nn1, the Ki (LIM domain kinase 1) was 15800 nM (active) and the Ki [3] was 5010 nM (active).

For NC1CCC(Nc2nccc(-c3c[nH]c4ncccc34)n2)CC1 (stereo unspecified), the Ki [4] was > 1580 nM (inactive), the Ki [5] was > 1260 nM (inactive) and the Ki [6] was 63.1 nM (active). The Ki [7] was 50.1 nM (active), the Ki (Insulin receptor) was 501 nM (active) and the Ki [8] was > 2000 nM (inactive). For the same molecule, the Ki [9] was > 631 nM (inactive), the Ki [10] was 2000 nM (active) and the Ki [11] was > 2510 nM (inactive). The Ki [12] was 1000 nM (active), the Ki [13] was 501 nM (active) and the Ki [14] was > 5010 nM (inactive). For the same molecule, the Ki [15] was 501 nM (active) and the Ki [16] was 39.8 nM (active).

For COC(C(=O)N1Cc2[nH]nc(NC(=O)c3ccc(N4CCN(C)CC4)cc3)c2C1)c1ccccc1 (stereo unspecified), the Ki [17] was 7940 nM (active), the Ki [18] was > 3980 nM (inactive) and the Ki [19] was 158 nM (active).
